Key:
FGFR2 = molecular target: T1, FGFR2 (Homo sapiens, UniProt P21802, K310R/N549K); test: pERK potency assay (In Cell ELISA), AN3CA cells; format: cell-based; conditions: for IC50: pERK, AN3CA (FGFR2/k310R, N549K) cells, 3 hours; for FGFR1 IC50/FGFR2 IC50 / FGFR3 IC50/FGFR2 IC50: selectivity ratio, pERK potency; for FGFR1 IC50/FGFR2 IC50: FGFR2 relative to FGFR1; for FGFR3 IC50/FGFR2 IC50: FGFR2 relative to FGFR3
T1 construct: in FGFR aberrations of AN3CA (FGFR2/k310R, N549K); host or cells: AN3CA
T1 sequence (P21802 22-821 K310R/N549K): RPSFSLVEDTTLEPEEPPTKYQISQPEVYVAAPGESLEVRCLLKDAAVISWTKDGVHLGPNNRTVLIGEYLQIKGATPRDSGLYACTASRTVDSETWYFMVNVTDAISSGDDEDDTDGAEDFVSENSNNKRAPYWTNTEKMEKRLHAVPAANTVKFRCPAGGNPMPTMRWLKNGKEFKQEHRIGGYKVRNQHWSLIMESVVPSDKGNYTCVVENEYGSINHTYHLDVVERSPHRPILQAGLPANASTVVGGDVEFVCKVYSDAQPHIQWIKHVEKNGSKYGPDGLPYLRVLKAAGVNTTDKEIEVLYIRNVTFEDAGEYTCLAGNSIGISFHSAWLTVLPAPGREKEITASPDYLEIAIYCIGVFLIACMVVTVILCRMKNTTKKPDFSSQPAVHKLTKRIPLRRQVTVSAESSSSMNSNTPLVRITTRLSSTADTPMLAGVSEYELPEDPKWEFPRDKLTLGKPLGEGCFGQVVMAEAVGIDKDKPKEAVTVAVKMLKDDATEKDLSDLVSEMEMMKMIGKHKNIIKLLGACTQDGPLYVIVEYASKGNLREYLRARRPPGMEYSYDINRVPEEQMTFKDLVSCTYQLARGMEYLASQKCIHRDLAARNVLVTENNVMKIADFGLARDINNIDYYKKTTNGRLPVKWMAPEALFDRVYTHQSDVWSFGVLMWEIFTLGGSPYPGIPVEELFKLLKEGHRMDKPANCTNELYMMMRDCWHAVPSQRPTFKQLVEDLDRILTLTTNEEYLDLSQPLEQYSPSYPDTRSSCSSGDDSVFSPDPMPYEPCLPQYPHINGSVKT
Outline: (§1)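 IC50 values come from a 4-parameter sigmoidal fit of in-cell ELISA chemiluminescent pERK (Thr202/Tyr204) signal. Treatment lasted 3 h at 37 °C, final 0.000038 to 10 μM in 4-fold steps, using AN3CA (mutant FGFR2), DMS114 (amplified FGFR1) and RT112 (FGFR3 overexpression/fusion) cells.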

FGFR1 = molecular target: T2, FGFR1 (Homo sapiens, UniProt P11362); test: pERK potency assay (In Cell ELISA), DMS114 cells; format: cell-based; conditions: DMS114 (FGFR1 amplification) cells, 3 hours
T2 construct: DMS114 (FGFR1 amplification); host or cells: DMS114
T2 sequence (P11362 22-822): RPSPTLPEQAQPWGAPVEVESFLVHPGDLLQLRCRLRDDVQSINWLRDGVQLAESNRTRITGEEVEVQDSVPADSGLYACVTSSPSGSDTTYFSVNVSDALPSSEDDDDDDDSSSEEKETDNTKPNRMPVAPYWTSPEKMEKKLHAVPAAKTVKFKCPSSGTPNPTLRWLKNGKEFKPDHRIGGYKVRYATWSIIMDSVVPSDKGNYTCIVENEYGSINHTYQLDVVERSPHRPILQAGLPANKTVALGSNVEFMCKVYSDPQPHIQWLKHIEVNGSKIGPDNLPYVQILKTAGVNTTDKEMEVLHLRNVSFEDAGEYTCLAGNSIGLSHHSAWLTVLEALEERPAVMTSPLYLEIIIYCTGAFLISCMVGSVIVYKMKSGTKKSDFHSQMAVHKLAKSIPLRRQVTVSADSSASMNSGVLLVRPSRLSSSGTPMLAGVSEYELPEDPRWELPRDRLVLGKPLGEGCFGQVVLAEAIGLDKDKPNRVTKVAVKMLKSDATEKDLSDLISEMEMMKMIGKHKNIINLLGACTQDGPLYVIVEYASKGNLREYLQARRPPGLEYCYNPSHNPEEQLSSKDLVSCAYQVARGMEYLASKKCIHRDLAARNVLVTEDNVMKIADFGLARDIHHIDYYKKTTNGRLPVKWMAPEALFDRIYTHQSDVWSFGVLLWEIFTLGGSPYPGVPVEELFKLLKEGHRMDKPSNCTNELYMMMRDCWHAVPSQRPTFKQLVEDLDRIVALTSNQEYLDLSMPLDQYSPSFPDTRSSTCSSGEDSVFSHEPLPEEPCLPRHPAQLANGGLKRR
Outline: as §1

FGFR3 = molecular target: T3, FGFR3 (Homo sapiens, UniProt P22607); test: pERK potency assay (In Cell ELISA), RT112 cells; format: cell-based; conditions: RT112 (FGFR3 overexpression/FGFR3-TACC3 fusion) cells, 3 hours
T3 construct: RT112 (FGFR3 overexpression/FGFR3-TACC3 fusion); host or cells: RT112; the other entry of the earlier key: TACC3 (Q9Y6A5, Transforming acidic coiled-coil-containing protein 3)
Outline: as §1

AN3CA = test: 2D cell proliferation assay, AN3CA; format: cell-based; conditions: Homo sapiens, AN3-CA, 96 hours, CTG, read-out: Cell Line, IC50 AN3CA
Method: (§2) Low IC50 values are indicative of the high potency of the FGFR inhibitor compounds in this assay selling. […] Cell proliferation assays are performed in two-dimensional (2D)) anchorage-dependent conditions in 96 well plates (Corning® Black/Clear flat Bottom, Cat #3603) with the following cell lines: • Ba/F3 FGFR2-BICC1 (human […]): Mouse Ba/F3 cell line stably expressed exogenous human FGFR2-BICC1 fusion gene bearing V546F mutation in FGFR2 Ba/F3; • FGFR2-BICC1 (human FGFR2/[…]): Mouse Ba/F3 cell line stably expressed exogenous human FGFR2-BICC1 fusion gene bearing N549K mutation in FGFR2; • Snu-16: human gastric cancer cell with FGFR2 amplification; • KATO III: human gastric cancer cell with FGFR2 amplification; • AN3CA: Human endometrial cancer with FGFR2 mutation (k310R, N549K); • MFM-223: Human breast cancer with FGFR1/2 amplification; • MFE-296: Human endometrial cancer with FGFR2 mutation (N549K); • MFE-280: Human endometrial cancer with FGFR2 mutation ([…]); • NCI-H1581: human non-small cell lung cancer with FGFR1 amplification; • KG-1a: Acute myelogenous leukemia with FGFR1OP2-FGFR1 translocation; • DMS114: human small cell carcinoma of the lung with FGFR1 amplification; • RT112: human bladder cancer with FGFR3 overexpression/FGFR3-TACC3 fusion; • SW780: human bladder cancer with FGFR3 overexpression/FGFR3-BALAP2L1 fusion; • Hep3B: Liver cancer with FGF19 amplification (FGFR4 ligand); • AGS: Human gastric adenocarcinoma with Kras G12D mutation and FGFR wild type; • PC-9: human non-small cell lung cancer (NSCLC) with wild-type FGFR and an EGFR del19 mutation; or • H1975: human non-small cell lung cancer (NSCLC) with wild-type FGFR and EGFR L858R/T790M mutation.
(§3) Cell lines are purchased from the American Type Culture Collection (ATCC) or Sigma. All cell lines are maintained in RPMI-1640 or DMEM supplemented with 10% heat-inactivated fetal bovine serum.
(§4) Cells growing in the log phase are detached with Gibco™ TrypLE™ Express Enzyme and plated in 96 well plate at 3000 to 5000 cells/well in 100 μl of media. After overnight incubation at 37° C., 5% CO2 incubator, cells are treated with compounds (50 uL/well) at the final concentrations spanning from 0.000038 uM to 10 μM (4-fold serial dilution for total of 10 points). Cells are incubated at 37° C., 5% CO2, and 95% humidity incubator for 96 hours. At the end of incubation 2D CTG reagent from Promega was added to each well according to vendors recommendation and mixed for 10 min in dark. The luminescence signals are determined with a Biotek™ plate reader. Data is fitted using a sigmoidal curve analysis program (GraphPad Prism®) with variable hill slope and IC50 is determined.

Ba/F3 FGFR2-N549K = molecular target: T4, Ba/F3 FGFR2-N549K (Homo sapiens, UniProt P21802, N549K, cells depend on it); test: 2D cell proliferation assay, Ba/F3 FGFR2-N549K; format: cell-based, mouse; conditions: 96 hours, CTG, read-out: Cell Line, IC50 Ba/F3 FGFR2-N549K
T4 construct: fused on or other part: Q9H694 (Protein bicaudal C homolog 1)
T4 sequence (P21802 whole entry N549K, the tested form may be a part): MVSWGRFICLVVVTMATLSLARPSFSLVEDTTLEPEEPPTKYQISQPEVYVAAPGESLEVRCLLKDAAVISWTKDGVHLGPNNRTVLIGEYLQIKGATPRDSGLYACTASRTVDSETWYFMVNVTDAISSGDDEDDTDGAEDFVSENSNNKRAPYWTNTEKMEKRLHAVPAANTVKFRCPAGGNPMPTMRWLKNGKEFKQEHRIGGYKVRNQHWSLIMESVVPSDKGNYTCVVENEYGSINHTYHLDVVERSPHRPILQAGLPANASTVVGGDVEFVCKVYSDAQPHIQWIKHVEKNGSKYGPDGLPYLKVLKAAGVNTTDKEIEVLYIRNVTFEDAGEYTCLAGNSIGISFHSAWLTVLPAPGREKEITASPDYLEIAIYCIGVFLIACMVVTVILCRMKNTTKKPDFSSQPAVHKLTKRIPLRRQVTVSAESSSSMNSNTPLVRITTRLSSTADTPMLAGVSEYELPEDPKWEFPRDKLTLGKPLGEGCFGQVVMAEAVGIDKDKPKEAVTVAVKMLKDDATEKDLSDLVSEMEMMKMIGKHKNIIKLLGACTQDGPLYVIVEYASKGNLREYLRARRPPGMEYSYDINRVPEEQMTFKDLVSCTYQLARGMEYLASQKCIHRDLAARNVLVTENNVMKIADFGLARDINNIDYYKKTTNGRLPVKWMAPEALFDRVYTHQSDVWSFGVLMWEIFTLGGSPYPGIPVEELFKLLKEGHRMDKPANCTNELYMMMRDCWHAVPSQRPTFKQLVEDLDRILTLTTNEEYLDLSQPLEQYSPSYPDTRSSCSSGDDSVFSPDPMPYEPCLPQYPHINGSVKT
Method: as §2, §3, §4

Ba/F3 FGFR2-V564F = molecular target: T5, Ba/F3 FGFR2-V564F (Homo sapiens, UniProt P21802, V564F, cells depend on it); test: 2D cell proliferation assay, Ba/F3 FGFR2-V564F; format: cell-based, mouse; conditions: 96 hours, CTG, read-out: Cell Line, IC50 Ba/F3 FGFR2-V564F
T5 construct: fused on or other part: Q9H694 (Protein bicaudal C homolog 1)
T5 sequence (P21802 whole entry V564F, the tested form may be a part): as the sequence (P21802 whole entry N549K, the tested form may be a part) above, with K549N, V564F counted along it
Method: as §2, §3, §4

KATO III = test: 2D cell proliferation assay, KATO III; format: cell-based; conditions: Homo sapiens, 96 hours, CTG, read-out: Cell Line, IC50 KATO III
Method: as §2, §3, §4

SNU-16 = test: 2D cell proliferation assay, SNU-16; format: cell-based; conditions: Homo sapiens, 96 hours, CTG, read-out: Cell Line, IC50 SNU-16
Method: as §2, §3, §4

SMILES | IC50 (FGFR2) [µM] | FGFR1 IC50/FGFR2 IC50 (FGFR2) | FGFR3 IC50/FGFR2 IC50 (FGFR2) | IC50 (FGFR1) [µM] | IC50 (FGFR3) [µM] | IC50 (AN3CA) [µM] | GI50 (Ba/F3 FGFR2-N549K) [µM] | GI50 (Ba/F3 FGFR2-V564F) [µM] | IC50 (KATO III) [µM] | IC50 (SNU-16) [µM]
C=CC(=O)N1CCC2(CC=C(c3c(-c4ccc(OC5CC5)nc4)c4c(N)ncnc4n3C)CC2)CC1 [Example 22, 1-(9-(4-amino-5-(6-cyclopropoxypyridin-3-yl)-7-methyl-7H-pyrrolo[2,3-d]pyrimidin-6-yl)-3-azaspiro[5.5]undec-8-en-3-yl)prop-2-en-1-one] | 0.001 to 0.01 | G (a selectivity ratio greater than 150 but less than or equal to 500) | G (a selectivity ratio greater than 150 but less than or equal to 500) | > 0.1 | > 0.1 | 0.01 to 0.03 | 0.001 to 0.01 | 0.001 to 0.01 | 0.001 to 0.01 | 0.001 to 0.01
C=CC(=O)N1CCC2(CC=C(c3c(-c4cccc(F)c4)c4c(N)ncnc4n3C)CC2)CC1 [Example 10, 1-(9-(4-amino-5-(3-fluorophenyl)-7-methyl-7H-pyrrolo[2,3-d]pyrimidin-6-yl)-3-azaspiro[5.5]undec-8-en-3-yl)prop-2-en-1-one] | 0.001 to 0.01 | G (a selectivity ratio greater than 150 but less than or equal to 500) | G (a selectivity ratio greater than 150 but less than or equal to 500) | > 0.1 | > 0.1 | 0.03 to 0.1 | – | – | 0.01 to 0.03 | 0.01 to 0.03
C=CC(=O)N1CCC2(CC=C(c3c(-c4cnc(OC)c(F)c4)c4c(N)ncnc4n3C)CC2)CC1 [Example 28, 1-(9-(4-amino-5-(5-fluoro-6-methoxypyridin-3-yl)-7-methyl-7H-pyrrolo[2,3-d]pyrimidin-6-yl)-3-azaspiro[5.5]undec-8-en-3-yl)prop-2-en-1-one] | 0.001 to 0.01 | F (a selectivity ratio greater than 50 but less than or equal to 150) | G (a selectivity ratio greater than 150 but less than or equal to 500) | > 0.1 | > 0.1 | 0.01 to 0.03 | 0.001 to 0.01 | 0.01 to 0.03 | 0.001 to 0.01 | 0.001 to 0.01
C=CC(=O)N1CCC2(CC=C(c3c(-c4cnc(OC5CC5)c(F)c4)c4c(N)ncnc4n3C)CC2)CC1 [Example 23, 1-(9-(4-amino-5-(6-cyclopropoxy-5-fluoropyridin-3-yl)-7-methyl-7H-pyrrolo[2,3-d]pyrimidin-6-yl)-3-azaspiro[5.5]undec-8-en-3-yl)prop-2-en-1-one] | 0.001 to 0.01 | G (a selectivity ratio greater than 150 but less than or equal to 500) | H (a selectivity ratio greater than 500 but less than or equal to 1000) | > 0.1 | > 0.1 | 0.01 to 0.03 | 0.001 to 0.01 | 0.01 to 0.03 | 0.001 to 0.01 | 0.001 to 0.01
C=CC(=O)N1CCC2(CC=C(c3c(-c4ccc(OC)cc4)c4c(N)ncnc4n3C)CC2)CC1 [Example 8, 1-(9-(4-amino-5-(4-methoxyphenyl)-7-methyl-7H-pyrrolo[2,3-d]pyrimidin-6-yl)-3-azaspiro[5.5]undec-8-en-3-yl)prop-2-en-1-one] | ≤ 0.001 | G (a selectivity ratio greater than 150 but less than or equal to 500) | H (a selectivity ratio greater than 500 but less than or equal to 1000) | 0.03 to 0.1 | > 0.1 | 0.001 to 0.01 | – | – | 0.001 to 0.01 | 0.001 to 0.01
C=CC(=O)N1CCC2(CC=C(c3c(-c4ccc(OC(F)F)cc4)c4c(N)ncnc4n3C)CC2)CC1 [Example 17, 1-(9-(4-amino-5-(4-(difluoromethoxy)phenyl)-7-methyl-7H-pyrrolo[2,3-d]pyrimidin-6-yl)-3-azaspiro[5.5]undec-8-en-3-yl)prop-2-en-1-one] | ≤ 0.001 | G (a selectivity ratio greater than 150 but less than or equal to 500) | G (a selectivity ratio greater than 150 but less than or equal to 500) | 0.03 to 0.1 | > 0.1 | 0.01 to 0.03 | – | – | 0.001 to 0.01 | 0.001 to 0.01
C=CC(=O)N1CCC2(CC=C(c3c(-c4ccc(OC(F)F)nc4)c4c(N)ncnc4n3C)CC2)CC1 [Example 29, 1-(9-(4-amino-5-(6-(difluoromethoxy)pyridin-3-yl)-7-methyl-7H-pyrrolo[2,3-d]pyrimidin-6-yl)-3-azaspiro[5.5]undec-8-en-3-yl)prop-2-en-1-one] | ≤ 0.001 | H (a selectivity ratio greater than 500 but less than or equal to 1000) | J (a selectivity ratio greater than 2000) | > 0.1 | > 0.1 | – | 0.001 to 0.01 | 0.03 to 0.1 | 0.001 to 0.01 | 0.001 to 0.01
C=CC(=O)N1CCC2(CC=C(c3c(-c4ccc(Oc5ncccn5)cc4)c4c(N)ncnc4n3C)CC2)CC1 [Example 4, 1-(9-(4-amino-7-methyl-5-(4-(pyrimidin-2-yloxy)phenyl)-7H-pyrrolo[2,3-d]pyrimidin-6-yl)-3-azaspiro[5.5]undec-8-en-3-yl)prop-2-en-1-one] | 0.001 to 0.01 | F (a selectivity ratio greater than 50 but less than or equal to 150) | G (a selectivity ratio greater than 150 but less than or equal to 500) | > 0.1 | > 0.1 | 0.03 to 0.1 | – | – | 0.01 to 0.03 | 0.001 to 0.01
C=CC(=O)N1CCC2(CC=C(c3c(-c4cccc(OC)c4)c4c(N)ncnc4n3C)CC2)CC1 [Example 16, 1-(9-(4-amino-5-(3-methoxyphenyl)-7-methyl-7H-pyrrolo[2,3-d]pyrimidin-6-yl)-3-azaspiro[5.5]undec-8-en-3-yl)prop-2-en-1-one] | 0.001 to 0.01 | F (a selectivity ratio greater than 50 but less than or equal to 150) | G (a selectivity ratio greater than 150 but less than or equal to 500) | > 0.1 | > 0.1 | 0.03 to 0.1 | – | – | 0.01 to 0.03 | 0.01 to 0.03
